pKd: −log10 of the molar value. Where two headings read alike, the source gives them in different places. Positions of bridges follow the written chain, without caps; N, C: chain ends. Residues, ends and D or L forms follow the SMILES beside them.
Columns and labels:
Type in all cases: binding
FGF-R4 ECD = molecular target: T1, FGF-R4 ECD (Homo sapiens, UniProt P22455); assay: single concentration BLI of crude peptides; conditions: read-out: KD (4)
T1 construct: DNA constructs for the extracellular domain (ECD) of human FGF-; HPC4 (C); made in house; host or cells: HEK 293-6E
T1 sequence (P22455 22-369 limits assumed): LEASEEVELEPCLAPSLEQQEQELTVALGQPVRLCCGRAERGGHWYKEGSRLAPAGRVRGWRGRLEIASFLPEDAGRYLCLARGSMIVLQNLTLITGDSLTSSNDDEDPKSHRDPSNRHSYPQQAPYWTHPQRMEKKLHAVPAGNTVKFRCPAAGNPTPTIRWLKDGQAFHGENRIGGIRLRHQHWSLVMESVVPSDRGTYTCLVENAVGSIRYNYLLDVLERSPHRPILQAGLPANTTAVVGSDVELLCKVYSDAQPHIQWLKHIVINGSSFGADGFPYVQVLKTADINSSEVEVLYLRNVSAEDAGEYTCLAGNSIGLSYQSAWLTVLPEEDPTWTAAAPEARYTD
How it was run: (§1)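 Biotinylated FGF-R ECD on streptavidin biosensors was dipped into ~1 μM crude peptide in PBS pH7.4 with 0.05% Tween-20 and 0.01% BSA for association, then into buffer for dissociation, and followed by BLI. Fitted KD values were adjusted for peptide concentration measured by UPLC-CAD.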

FGF-R1C ECD = molecular target: T2, FGF-R1C ECD (Homo sapiens, UniProt P11362); assay: biochemical; set-up: DNA constructs for the extracellular domain (ECD) of human FGF-; HPC4 (C); made in house; host or cells: HEK 293-6E
T2 sequence (P11362 22-376 limits assumed): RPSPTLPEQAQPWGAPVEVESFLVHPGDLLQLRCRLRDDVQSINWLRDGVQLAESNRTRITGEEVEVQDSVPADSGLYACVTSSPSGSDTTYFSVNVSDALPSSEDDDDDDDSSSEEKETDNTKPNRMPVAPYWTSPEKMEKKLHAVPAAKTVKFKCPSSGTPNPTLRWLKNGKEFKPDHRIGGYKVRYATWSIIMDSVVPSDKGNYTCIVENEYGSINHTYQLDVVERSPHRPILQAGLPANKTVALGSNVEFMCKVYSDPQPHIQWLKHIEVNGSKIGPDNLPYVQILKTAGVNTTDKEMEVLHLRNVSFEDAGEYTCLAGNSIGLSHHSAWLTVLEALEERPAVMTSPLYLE
How it was run: as §1

FGF-R3C ECD = molecular target: T3, FGF-R3C ECD (Homo sapiens, UniProt P22607); assay: biochemical; set-up: DNA constructs for the extracellular domain (ECD) of human FGF-; HPC4 (C); made in house; host or cells: HEK 293-6E
T3 sequence (P22607 23-375 limits assumed): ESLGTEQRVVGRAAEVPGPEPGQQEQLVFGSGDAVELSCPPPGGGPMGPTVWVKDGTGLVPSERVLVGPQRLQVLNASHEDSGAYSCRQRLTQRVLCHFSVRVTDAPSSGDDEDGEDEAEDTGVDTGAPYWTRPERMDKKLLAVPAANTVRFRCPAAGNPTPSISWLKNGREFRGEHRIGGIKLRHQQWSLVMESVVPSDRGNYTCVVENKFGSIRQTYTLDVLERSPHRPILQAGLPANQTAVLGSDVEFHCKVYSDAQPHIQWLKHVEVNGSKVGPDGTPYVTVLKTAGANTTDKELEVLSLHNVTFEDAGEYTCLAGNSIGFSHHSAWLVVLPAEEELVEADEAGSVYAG
How it was run: as §1

[1] = crude T18 selection 1 (1:1:1) peptides, single concentration BLI (Table S4)
[2] = crude NNK peptides, single concentration BLI (Table S3)

Compound | pKd (FGF-R4 ECD; [1]) | pKd (FGF-R1C ECD) | pKd (FGF-R3C ECD) | pKd (FGF-R4 ECD; [2])
CC[C@H](C)[C@@H]1NC(=O)[C@H](Cc2ccc(O)cc2)NC(=O)[C@H](C)NC(=O)[C@H](C(C)C)NC(=O)[C@H](Cc2ccc(O)cc2)NC(=O)CNC(=O)[C@H](Cc2c[nH]cn2)NC(=O)[C@H]([C@@H](C)CC)NC(=O)[C@H]([C@@H](C)CC)NC(=O)[C@H](CO)NC(=O)[C@H](CC(C)C)NC(=O)[C@H](CC(N)=O)NC(=O)[C@@H](NC(=O)[C@H](CCSC)NC(C)=O)CSSC[C@@H](C(=O)NCC(=O)N[C@@H](CO)C(=O)NCC(=O)N[C@@H](CO)C(=O)N[C@@H](CC(=O)O)C(=O)N[C@@H](Cc2ccc(O)cc2)C(=O)N[C@@H](CCCCN)C(=O)N[C@@H](CC(=O)O)C(=O)N[C@@H](CC(=O)O)C(=O)N[C@@H](CC(=O)O)C(=O)N[C@@H](CC(=O)O)C(=O)N[C@@H](CCCCN)C(N)=O)NC1=O (Ac-MCNLSIIHGYVAYICGSGSDYKDDDDK-NH2; disulfide 2-15) | 9.00 | < 5.00 | < 5.00 | 
CC[C@H](C)[C@@H]1NC(=O)[C@H](CCCCN)NC(=O)[C@H](Cc2ccccc2)NC(=O)[C@H](Cc2ccccc2)NC(=O)[C@H](Cc2c[nH]cn2)NC(=O)[C@H]([C@@H](C)CC)NC(=O)[C@@H]2CCCN2C(=O)[C@@H](NC(=O)[C@H](CCSC)NC(C)=O)CSSC[C@@H](C(=O)NCC(=O)N[C@@H](CO)C(=O)NCC(=O)N[C@@H](CO)C(=O)N[C@@H](CCC(=O)O)C(=O)N[C@@H](CCC(=O)O)C(=O)NCC(=O)N[C@@H](CO)C(=O)NCC(=O)N[C@@H](CO)C(=O)N[C@@H](CC(=O)O)C(=O)N[C@@H](Cc2ccc(O)cc2)C(=O)N[C@@H](CCCCN)C(=O)N[C@@H](CC(=O)O)C(=O)N[C@@H](CC(=O)O)C(=O)N[C@@H](CC(=O)O)C(=O)N[C@@H](CC(=O)O)C(=O)N[C@@H](CCCCN)C(N)=O)NC(=O)[C@H](Cc2c[nH]cn2)NC(=O)[C@H](CCCNC(=N)N)NC(=O)[C@H](Cc2ccc(O)cc2)NC(=O)[C@H](C(C)C)NC1=O (Ac-MCPIHFFKIVYRHCGSGSEEGSGSDYKDDDDK-NH2; disulfide 2-14) | 8.00 | 8.00 | < 5.00 | 
CC[C@H](C)[C@@H]1NC(=O)[C@H](CC(C)C)NC(=O)[C@H](Cc2c[nH]c3ccccc23)NC(=O)[C@H](CCCCN)NC(=O)[C@@H]2CCCN2C(=O)[C@@H](NC(=O)[C@H](CCSC)NC(C)=O)CSSC[C@@H](C(=O)NCC(=O)N[C@@H](CO)C(=O)NCC(=O)N[C@@H](CO)C(=O)N[C@@H](CC(=O)O)C(=O)N[C@@H](Cc2ccc(O)cc2)C(=O)N[C@@H](CCCCN)C(=O)N[C@@H](CC(=O)O)C(=O)N[C@@H](CC(=O)O)C(=O)N[C@@H](CC(=O)O)C(=O)N[C@@H](CC(=O)O)C(=O)N[C@@H](CCCCN)C(N)=O)NC(=O)[C@H](CC(N)=O)NC(=O)[C@H](CC(C)C)NC(=O)[C@H](CC(C)C)NC(=O)[C@H](C(C)C)NC(=O)[C@H](CCCCN)NC1=O (Ac-MCPKWLIKVLLNCGSGSDYKDDDDK-NH2; disulfide 2-13) |  | < 5.00 | < 5.00 | 5.38
CSCC[C@H](NC(C)=O)C(=O)N[C@H]1CSSC[C@@H](C(=O)NCC(=O)N[C@@H](CO)C(=O)NCC(=O)N[C@@H](CO)C(=O)N[C@@H](CC(=O)O)C(=O)N[C@@H](Cc2ccc(O)cc2)C(=O)N[C@@H](CCCCN)C(=O)N[C@@H](CC(=O)O)C(=O)N[C@@H](CC(=O)O)C(=O)N[C@@H](CC(=O)O)C(=O)N[C@@H](CC(=O)O)C(=O)N[C@@H](CCCCN)C(N)=O)NC(=O)[C@H]([C@@H](C)O)NC(=O)[C@H](CCSC)NC(=O)[C@H](CC(C)C)NC(=O)[C@H](CCCNC(=N)N)NC(=O)[C@H](Cc2c[nH]c3ccccc23)NC(=O)[C@H](CC(C)C)NC(=O)[C@H](CC(C)C)NC(=O)[C@H](Cc2ccccc2)NC(=O)[C@H](Cc2ccc(O)cc2)NC(=O)[C@H](CCCCN)NC(=O)[C@@H]2CCCN2C1=O (Ac-MCPKYFLLWRLMTCGSGSDYKDDDDK-NH2; disulfide 2-14) |  | < 5.00 | < 5.00 | 5.74
CC[C@H](C)[C@@H]1NC(=O)[C@H](C)NC(=O)[C@H](Cc2ccc(O)cc2)NC(=O)[C@@H]2CCCN2C(=O)[C@@H](NC(=O)[C@H](CCSC)NC(C)=O)CSSC[C@@H](C(=O)NCC(=O)N[C@@H](CO)C(=O)NCC(=O)N[C@@H](CO)C(=O)N[C@@H](CCC(=O)O)C(=O)N[C@@H](CCC(=O)O)C(=O)NCC(=O)N[C@@H](CO)C(=O)NCC(=O)N[C@@H](CO)C(=O)N[C@@H](CC(=O)O)C(=O)N[C@@H](Cc2ccc(O)cc2)C(=O)N[C@@H](CCCCN)C(=O)N[C@@H](CC(=O)O)C(=O)N[C@@H](CC(=O)O)C(=O)N[C@@H](CC(=O)O)C(=O)N[C@@H](CC(=O)O)C(=O)N[C@@H](CCCCN)C(N)=O)NC(=O)[C@H]([C@@H](C)O)NC(=O)[C@H](CCCCN)NC(=O)[C@H](CCCNC(=N)N)NC(=O)[C@H](Cc2c[nH]c3ccccc23)NC(=O)[C@H](CCCCN)NC(=O)[C@H](Cc2ccc(O)cc2)NC(=O)[C@H](Cc2c[nH]c3ccccc23)NC(=O)[C@H](Cc2ccc(O)cc2)NC1=O (Ac-MCPYAIYWYKWRKTCGSGSEEGSGSDYKDDDDK-NH2; disulfide 2-15) | 7.96 | < 5.00 | < 5.00 | 
CSCC[C@H](NC(C)=O)C(=O)N[C@H]1CSSC[C@@H](C(=O)NCC(=O)N[C@@H](CO)C(=O)NCC(=O)N[C@@H](CO)C(=O)N[C@@H](CC(=O)O)C(=O)N[C@@H](Cc2ccc(O)cc2)C(=O)N[C@@H](CCCCN)C(=O)N[C@@H](CC(=O)O)C(=O)N[C@@H](CC(=O)O)C(=O)N[C@@H](CC(=O)O)C(=O)N[C@@H](CC(=O)O)C(=O)N[C@@H](CCCCN)C(N)=O)NC(=O)[C@H](CC(=O)O)NC(=O)[C@H](CCCNC(=N)N)NC(=O)[C@H](Cc2c[nH]c3ccccc23)NC(=O)[C@H](CC(=O)O)NC(=O)[C@H](Cc2c[nH]cn2)NC(=O)[C@H](Cc2c[nH]c3ccccc23)NC(=O)[C@H](CC(=O)O)NC(=O)[C@H](Cc2ccc(O)cc2)NC(=O)[C@H](Cc2ccc(O)cc2)NC(=O)[C@H](CC(=O)O)NC(=O)[C@H](Cc2ccc(O)cc2)NC(=O)[C@@H]2CCCN2C1=O (Ac-MCPYDYYDWHDWRDCGSGSDYKDDDDK-NH2; disulfide 2-15) | 5.80 | < 5.00 | < 5.00 | 
CSCC[C@H](NC(C)=O)C(=O)N[C@H]1CSSC[C@@H](C(=O)NCC(=O)N[C@@H](CO)C(=O)NCC(=O)N[C@@H](CO)C(=O)N[C@@H](CC(=O)O)C(=O)N[C@@H](Cc2ccc(O)cc2)C(=O)N[C@@H](CCCCN)C(=O)N[C@@H](CC(=O)O)C(=O)N[C@@H](CC(=O)O)C(=O)N[C@@H](CC(=O)O)C(=O)N[C@@H](CC(=O)O)C(=O)N[C@@H](CCCCN)C(N)=O)NC(=O)[C@H](Cc2ccccc2)NC(=O)[C@H](C(C)C)NC(=O)[C@H](CCCNC(=N)N)NC(=O)[C@H](Cc2c[nH]c3ccccc23)NC(=O)[C@H](Cc2ccc(O)cc2)NC(=O)[C@H](CCC(N)=O)NC(=O)[C@H](C(C)C)NC(=O)[C@H](Cc2ccc(O)cc2)NC(=O)[C@H](Cc2ccc(O)cc2)NC(=O)[C@@H]2CCCN2C1=O (Ac-MCPYYVQYWRVFCGSGSDYKDDDDK-NH2; disulfide 2-13) | 8.05 | < 5.00 | < 5.00 | 

From PMC10763615, “Identification and engineering of potent cyclic peptides with selective or promiscuous binding through biochemical profiling and bioinformatic data analysis” (RSC Chemical Biology, 2023)
